Read-outs that look alike come from different tables or passages of the source.
Key:
L1 wild-type C. elegans [1] = details: for KCN survival assay value relative to DMSO control, Mean: mean of replicates
[2] = test system: ben-1 mutant (ECA882) C. elegans; assay: microbe, parasite or virus in culture; details: for C. elegans L1 relative development & viability (score 0-1 relative to DMSO controls): strain ECA882, deletion (ben-1); for C. elegans L1 relative development & viability: ECA882 deletion (ben-1)
Procedure: Liquid development and viability assays were adapted from a previously established chemical screening protocol (Burns et al.)[24]. In brief, a saturated culture of E. coli HB101 was concentrated 2-fold in liquid NGM and 40 μL of this suspension was distributed to each well of a 96-well flat-bottom culture plate. 0.5 μL chemical solution (or DMSO alone) was added to each well (1% DMSO v/v) using either a multi-channel pipette or a pinning tool (V&P Scientific). L1 worms synchronized from an embryo preparation performed the day prior were diluted to a concentration of ~2 worms/μL in M9 buffer; 10 μL worm suspension was then added to each well. Culture plates were sealed with parafilm and placed in a plastic container lined with wet paper towels to prevent evaporation. Containers were then incubated for 6 days at 20 °C with shaking at 165 rpm. Following incubation, 300 μL M9 was added to each well to decrease the turbidity of the HB101-NGM suspension. Single images of each microplate well were then taken on a Nikon Ti Eclipse inverted microscope (Nikon NIS Elements AR). Images were processed using Python scripts to isolate worm-associated pixels from background. Scores of worm development and viability were determined as the sum of worm-associated pixels in each well. Development/viability scores for each well were divided by the development /viability scores for the corresponding DMSO controls, resulting in a relative viability value for each chemical. At least three biological replicates were performed for each dose-response experiment; relative viability values were averaged across replicates. […]
anthelmintics. a. Chemical structures of four commercial benzimidazole anthelmintics (e.g., albendazole, […]
Dose response of four commercial […]
elegans strains: N2, wild type; ECA882, deletion (ben-1); ECA917, F200Y (ben-1); ECA1075, F167Y (ben-1); ECA1080, E198A (ben-1); CB3474, G104D (ben-1). The colour-coded scale denotes the phenotypic outcome of drug treatment (e.g., motility or viability) relative to DMSO controls; white/pale- […]
death and arrested development. c. […]
benzimidazole anthelmintics (blue) were conducted in C. elegans development and viability assays for wild type (N2) and ben-1 mutant (ECA882) C. elegans (see Supplementary Date File 1).
All data used for generation of dose-response curves is the mean of at least three […]
Supplementary Figure 7 (continued). Davie et al.

L1 wild-type C. elegans [3] = assay: microbe, parasite or virus in culture; details: Caenorhabditis elegans, read-out: C. elegans KCN Survival Assay LC50, estimated from fitted dose-response curves; mean of at least two biological replicates
[4] = Caenorhabditis elegans, read-out: C. elegans ben-1(e1880) development/viability
[5] = Caenorhabditis elegans, read-out: C. elegans ben-1 LC50
[6] = Caenorhabditis elegans, read-out: C. elegans ben-1 log10 LC50 (converted)
[7] = 1 µM, score 0-1 relative to DMSO, values >1 set to 1
[8] = 2 µM, score 0-1 relative to DMSO, values >1 set to 1
[9] = 3.9 µM, score 0-1 relative to DMSO, values >1 set to 1
[10] = 15.6 µM, score 0-1 relative to DMSO, values >1 set to 1
[11] = 31.3 µM, score 0-1 relative to DMSO, values >1 set to 1

O=C(NCCc1ccc(Cl)cc1)c1ccccc1C(F)(F)F [Wact-11]
C. elegans L1 relative motility, 3-hour post 200 µM KCN dilution (L1 wild-type C. elegans [1]): 0.985
KCN survival assay value relative to DMSO control (L1 wild-type C. elegans [1]): 0.985
relative motility, 20 min after KCN removal (L1 wild-type C. elegans [1]): 0.070
relative motility, 80 min after KCN removal (L1 wild-type C. elegans [1]): 0.012
relative motility, 110 min after KCN removal (L1 wild-type C. elegans [1]): 0.018
relative motility, 160 min after KCN removal (L1 wild-type C. elegans [1]): 0.009
relative motility, 180 min after KCN removal (L1 wild-type C. elegans [1]): 0.000
KCN survival assay value relative to DMSO control (L1 wild-type C. elegans [1]; 15 hour drug + KCN treatment, dose 0.1 µM, Mean of replicates): 0.937
KCN survival assay value relative to DMSO control (L1 wild-type C. elegans [1]; 15 hour drug + KCN treatment, dose 0.2 µM, Mean of replicates): 0.997
KCN survival assay value relative to DMSO control (L1 wild-type C. elegans [1]; 15 hour drug + KCN treatment, dose 0.4 µM, Mean of replicates): 0.959
KCN survival assay value relative to DMSO control (L1 wild-type C. elegans [1]; 15 hour drug + KCN treatment, dose 0.8 µM, Mean of replicates): 0.815
KCN survival assay value relative to DMSO control (L1 wild-type C. elegans [1]; 15 hour drug + KCN treatment, dose 3.1 µM, Mean of replicates): 0.584
KCN survival assay value relative to DMSO control (L1 wild-type C. elegans [1]; 15 hour drug + KCN treatment, dose 6.3 µM, Mean of replicates): 0.376
KCN survival assay value relative to DMSO control (L1 wild-type C. elegans [1]; 15 hour drug + KCN treatment, dose 12.5 µM, Mean of replicates): 0.173
KCN survival assay value relative to DMSO control (L1 wild-type C. elegans [1]; 15 hour drug + KCN treatment, dose 25 µM, Mean of replicates): 0.067
KCN survival assay value relative to DMSO control (L1 wild-type C. elegans [1]; 15 hour drug + KCN treatment, dose 50 µM, Mean of replicates): 0.015
KCN survival assay value relative to DMSO control (L1 wild-type C. elegans [1]; 15 hour drug + KCN treatment, dose 100 µM, Mean of replicates): 0.006
LC50 (L1 wild-type C. elegans [1]; caenorhabditis elegans): 4.43 µM
C. elegans L1 relative motility, 3-hour post 200 µM KCN dilution (L1 wild-type C. elegans [1]; dose 0.1 µM, Mean of replicates): 0.937
C. elegans L1 relative motility, 3-hour post 200 µM KCN dilution (L1 wild-type C. elegans [1]; dose 0.2 µM, Mean of replicates): 0.997
C. elegans L1 relative motility, 3-hour post 200 µM KCN dilution (L1 wild-type C. elegans [1]; dose 0.4 µM, Mean of replicates): 0.959
C. elegans L1 relative motility, 3-hour post 200 µM KCN dilution (L1 wild-type C. elegans [1]; dose 0.8 µM, Mean of replicates): 0.815
C. elegans L1 relative motility, 3-hour post 200 µM KCN dilution (L1 wild-type C. elegans [1]; dose 3.1 µM, Mean of replicates): 0.584
C. elegans L1 relative motility, 3-hour post 200 µM KCN dilution (L1 wild-type C. elegans [1]; dose 6.3 µM, Mean of replicates): 0.376
C. elegans L1 relative motility, 3-hour post 200 µM KCN dilution (L1 wild-type C. elegans [1]; dose 12.5 µM, Mean of replicates): 0.173
C. elegans L1 relative motility, 3-hour post 200 µM KCN dilution (L1 wild-type C. elegans [1]; dose 25 µM, Mean of replicates): 0.067
C. elegans L1 relative motility, 3-hour post 200 µM KCN dilution (L1 wild-type C. elegans [1]; dose 50 µM, Mean of replicates): 0.015
C. elegans L1 relative motility, 3-hour post 200 µM KCN dilution (L1 wild-type C. elegans [1]; dose 100 µM, Mean of replicates): 0.006
C. elegans L1 relative motility, 3-hour post 200 µM KCN dilution (L1 wild-type C. elegans [1]; dose […], Mean of replicates): 0.795

CCCn1c(COc2ccc(C)cc2)nc2ccccc21 [Compound 6944471]
Screen "Hit" (L1 wild-type C. elegans [1]; 50 μM, […], hit = relative motility below 0.25 3 hours after removal of KCN): Y (hits were identified as compounds that reduced relative motility below 0.25 (75% reduction))
Relative Motility (L1 wild-type C. elegans [1]; 50 μM, […], worm motility 3 hours after removal of KCN, relative to DMSO controls, single biological replicate): 0.170
C. elegans KCN Survival (L1 wild-type C. elegans [1]; Dose 0.2 µM, mean of at least three biological replicates): 0.888
C. elegans KCN Survival (L1 wild-type C. elegans [1]; Dose 0.39 µM): 0.949
C. elegans KCN Survival (L1 wild-type C. elegans [1]; Dose 1.56 µM): 1.451
C. elegans KCN Survival (L1 wild-type C. elegans [1]; Dose 3.13 µM): 0.820
C. elegans KCN Survival (L1 wild-type C. elegans [1]; Dose 6.25 µM): 0.671
C. elegans KCN Survival (L1 wild-type C. elegans [1]; Dose 12.5 µM): 0.270
C. elegans KCN Survival (L1 wild-type C. elegans [1]; Dose 25 µM): 0.341
C. elegans KCN Survival (L1 wild-type C. elegans [1]; Dose 50 µM): 0.000
C. elegans KCN Survival (L1 wild-type C. elegans [1]; Dose 100 µM): 0.000
LC50 ([2]; Caenorhabditis elegans, read-out: C. elegans (ben-1) Development & Viability Assay LC50): > 1000 µM
viability at 15.6 µM [2, 4]: 98%
viability at 31.3 µM [2, 4]: 100%
viability at 62.5 µM [2, 4]: 100%
viability at 125 µM [2, 4]: 100%
viability at 250 µM [2, 4]: 100%
viability at 500 µM [2, 4]: 62.1%
viability at 1000 µM [2, 4]: 100%
LC50 [2, 5]: > 500 µM
LC50 [2, 6]: > 500 µM
LC50 (L1 wild-type C. elegans [3]): 10.6 µM

COC(=O)Nc1nc2ccc(Sc3ccccc3)cc2[nH]1 [fenbendazole, reference compound]
KCN survival assay value relative to DMSO control, Mean (L1 wild-type C. elegans [1]; dose 0.2 µM, […]): 1.025
KCN survival assay value relative to DMSO control, Mean (L1 wild-type C. elegans [1]; dose 0.4 µM, […]): 0.947
KCN survival assay value relative to DMSO control, Mean (L1 wild-type C. elegans [1]; dose 0.8 µM, […]): 0.953
KCN survival assay value relative to DMSO control, Mean (L1 wild-type C. elegans [1]; dose 3.1 µM, […]): 0.953
KCN survival assay value relative to DMSO control, Mean (L1 wild-type C. elegans [1]; dose 6.3 µM, […]): 0.899
KCN survival assay value relative to DMSO control, Mean (L1 wild-type C. elegans [1]; dose 12.5 µM, […]): 0.967
KCN survival assay value relative to DMSO control, Mean (L1 wild-type C. elegans [1]; dose 25 µM, […]): 0.933
KCN survival assay value relative to DMSO control, Mean (L1 wild-type C. elegans [1]; dose 50 µM, […]): 0.872
KCN survival assay value relative to DMSO control, Mean (L1 wild-type C. elegans [1]; dose 100 µM, […]): 0.880
C. elegans L1 relative development & viability (score 0-1 relative to DMSO controls) ([2]; 1 µM): 1.000
C. elegans L1 relative development & viability (score 0-1 relative to DMSO controls) ([2]; 2 µM): 1.000
C. elegans L1 relative development & viability (score 0-1 relative to DMSO controls) ([2]; 3.9 µM): 1.000
C. elegans L1 relative development & viability (score 0-1 relative to DMSO controls) ([2]; 15.6 µM): 0.861
C. elegans L1 relative development & viability (score 0-1 relative to DMSO controls) ([2]; 31.3 µM): 0.962
C. elegans L1 relative development & viability (score 0-1 relative to DMSO controls) ([2]; 62.5 µM): 0.936
C. elegans L1 relative development & viability (score 0-1 relative to DMSO controls) ([2]; 125 µM): 0.785
C. elegans L1 relative development & viability (score 0-1 relative to DMSO controls) ([2]; 250 µM): 0.877
C. elegans L1 relative development & viability (score 0-1 relative to DMSO controls) ([2]; 500 µM): 0.667
LC50 [2, 5]: > 500 µM
LC50 [2, 6]: > 500 µM
C. elegans L1 relative development & viability [2, 7]: 1.000
C. elegans L1 relative development & viability [2, 8]: 1.000
C. elegans L1 relative development & viability [2, 9]: 1.000
C. elegans L1 relative development & viability ([2]; 15.6 µM, […]): 0.861
C. elegans L1 relative development & viability ([2]; 31.3 µM, […]): 0.962
C. elegans L1 relative development & viability ([2]; 62.5 µM, […]): 0.936
C. elegans L1 relative development & viability ([2]; 125 µM, […]): 0.785
C. elegans L1 relative development & viability ([2]; 250 µM, […]): 0.877
C. elegans L1 relative development & viability ([2]; 500 µM, […]): 0.667

COC(=O)Nc1nc2ccc(C(=O)c3ccccc3)cc2[nH]1 [mebendazole, reference compound]
LC50 [2, 5]: > 250 µM
LC50 [2, 6]: > 250 µM
C. elegans L1 relative development & viability [2, 7]: 1.000
C. elegans L1 relative development & viability [2, 8]: 1.000
C. elegans L1 relative development & viability [2, 9]: 1.000
C. elegans L1 relative development & viability [2, 10]: 1.000
C. elegans L1 relative development & viability [2, 11]: 1.000
C. elegans L1 relative development & viability ([2]; 62.5 µM, […]): 0.948
C. elegans L1 relative development & viability ([2]; 125 µM, […]): 0.701
C. elegans L1 relative development & viability ([2]; 250 µM, […]): 0.623

c1ccc2[nH]c(-c3cscn3)nc2c1 [Thiabendazole]
C. elegans L1 relative motility, 3-hour post 200 µM KCN dilution (L1 wild-type C. elegans [1]; […], score 0-1 relative to DMSO, values >1 set to 1): 1.000
LC50 [2, 5]: 375 µM
LC50 [2, 6]: 375 µM
C. elegans L1 relative development & viability ([2]; 1 µM, […]): 0.926
C. elegans L1 relative development & viability ([2]; 2 µM, […]): 0.954
C. elegans L1 relative development & viability ([2]; 3.9 µM, […]): 0.969
C. elegans L1 relative development & viability [2, 10]: 0.996
C. elegans L1 relative development & viability [2, 11]: 1.000
C. elegans L1 relative development & viability ([2]; 62.5 µM, score 0-1 relative to DMSO, values >1 set to 1): 1.000
C. elegans L1 relative development & viability ([2]; 125 µM, score 0-1 relative to DMSO, values >1 set to 1): 1.000
C. elegans L1 relative development & viability ([2]; 250 µM, […]): 0.967
C. elegans L1 relative development & viability ([2]; 500 µM, […]): 0.155

From PMC11079024, “Identification of a family of species-selective complex I inhibitors as potential anthelmintics” (Nature Communications, 2024)
